Patent publication US10294204B2, “Fluorescence compounds and preparation method thereof” (BioActs Co., Ltd., priority 2016, dated 2019)
Each block holds one compound with its values, some of them ahead of it.

How the values were obtained:
Type in all cases: physicochemical
[1] = Test Example 1: absorption and fluorescence intensity with and without the alkylcarboxyaminocyanuric chloride substituent
Experimental: According to [Chemical Formula 1] disclosed herein, compounds to which a substituent including cyanuric chloride bound with an aminoalkylcarboxylic acid is introduced are prepared and optical properties thereof are compared with each other. Glycine is used as an aminoalkylcarboxylic acid to obtain Compound 1 (Example 1.7) disclosed herein, and the optical properties thereof are compared with those of the compound (Example 1.3) including no alkylcarboxyamino cyanuric chloride substituent introduced thereto.
At the same concentration, the compounds of Example 1.7 and Example 1.3 are determined for absorption wavelength and intensity and the results are shown in FIG. 1A. […] To perform accurate comparison of fluorescence wavelength intensity, the concentration of each of the compounds of Example 1.7 and Example 1.3 is corrected so that they may have the same absorption intensity, and then the fluorescence wavelength and intensity of each compound are determined.

[2] = Test Example 4 (3),(4): relative quantum yield based on Rhodamine 6G; details: pH 7.4 1xPBS
Experimental: (§1) Based on Rhodamine 6G (TCI), relative quantum yield of Compound 20 and that of the reference fluorescent dye (Alexa Fluor 647 NHS ester) are determined. DMF is added to the two types of fluorescent dyes and Rhodamine 6G to 10 mg/mL to provide stock solutions. Next, pH 7.4 1×PBS is used to dilute the solutions to a concentration of 10 μM and absorption and fluorescence are determined. Herein, 1/2 dilution is carried out from a concentration of 10 μM and then absorption and fluorescence are determined 10 times totally up to the sample of 1/512× concentration. The determined values are introduced to the following Mathematical Formula 1 to analyze the relative quantum yield and the results are shown in the following Table 3 and FIG. 6.
[formula] • Q=Quantum Yield • I=Fluorophore • OD=Absorbance • SubscriptR=Rodamine 6G
as §1, with “18” for “20”, “555” for “647”, “to” for “to the following”, “yield. The” for “yield and the results are shown in the”, “4” for “3”, “7 show the relative quantum yield of each dye.” for “6.”

[3] = Test Example 4 (1),(2): fluorescence intensity of free dye versus reference fluorescent dye
Experimental: (§2) Compound 20 and a reference fluorescent dye (Alexa Fluor 647 NHS ester) are compared with each other in terms of fluorescence intensity. DMF is added to the two types of fluorescent dyes to provide stock solutions and each solution is adjusted to the same concentration of 10 mg/mL. Next, pH 7.4 10 mM phosphate buffered saline (hereinafter, 1×PBS) is used to dilute the solution to a concentration of 19.5 nM and fluorescence is determined under the setting of Excitation 560 nm. The fluorescence determination is carried out by using LS 55 Fluorescence spectrometer (Perkin Elmer).
as §2, with “18” for “20”, “555” for “647”, “552” for “560”

[4] = Test Example 2: fluorescence intensity as a function of concentration in PBS (plate reader), same absorption intensity; design: increment of fluorescence intensity compared to Compound 19: dose or concentration left out as unconfirmed
Experimental: To determine a change in optical properties when the compound of [Chemical Formula 1] disclosed herein is modified to allow labeling of a biomolecule, an N-succinimidyl group is introduced to each of Compound 9.7 and Compound 10 to obtain Compound 19 and Compound 20, respectively, in the same manner as described hereinabove. Then, fluorescence characteristics are compared at the same absorption wavelength intensity.
Each of Compound 19 and Compound 20 is added to 5 mL of PBS at a concentration of 10 mg/mL at room temperature to provide samples. Next, 1 mL of PBS is added to 2 mL of each sample and the intensity is measured as a function of absorption wavelength. After adjusting the concentration of a sample so that the absorption intensity (Abs at 650 nm) of Compound 19 may be the same as that of Compound 20 from the resultant data, the sample is diluted many times and the fluorescence thereof is determined by using a plate reader (Perkin Elmer).

Compound: CC[N+]1=C(/C=C/C=C2/N(CCCCCC(=O)NNc3nc(Cl)nc(NCC(=O)O)n3)c3ccc(S(=O)(=O)O)cc3C2(C)C)C(C)(C)c2cc(S(=O)(=O)[O-])ccc21 [Compound 1]
- intensity of fluorescence wavelength relative to Example 1.3 ([1]; concentration corrected to same absorption intensity, FIG. 1B): approximately two times higher

Compound: CC1(CCCCCC(=O)NCCCNc2nc(Cl)nc(NCCCCCC(=O)ON3C(=O)CCC3=O)n2)C(/C=C/C=C2/N(CCCS(=O)(=O)O)c3ccc(S(=O)(=O)O)cc3C2(C)C)=[N+](CCCS(=O)(=O)O)c2ccc(S(=O)(=O)[O-])cc21 (stereo not drawn) [Compound 18]
- Relative quantum yield (%) ([2]; 552 compound): 13.34%
- fluorescence intensity versus reference fluorescent dye (Alexa Fluor 555 NHS ester) ([3]; 19.5 nM in 1xPBS pH 7.4, Excitation 552 nm, FIG. 5): relatively higher fluorescence intensity

Compound: CC1(CCCCCC(=O)ON2C(=O)CCC2=O)C(/C=C/C=C/C=C2/N(CCCS(=O)(=O)O)c3ccc(S(=O)(=O)O)cc3C2(C)C)=[N+](CCCS(=O)(=O)[O-])c2ccc(S(=O)(=O)O)cc21 (stereo not drawn) [Compound 19]
- Average fluorescence intensity (at 665 nm) ([4]; 3 nM in PBS): 412.0
- Average fluorescence intensity (at 665 nm) ([4]; 6 nM in PBS): 810.7
- Average fluorescence intensity (at 665 nm) ([4]; 12 nM in PBS): 1673.0
- Average fluorescence intensity (at 665 nm) ([4]; 25 nM in PBS): 3336.7
- Average fluorescence intensity (at 665 nm) ([4]; 49 nM in PBS): 6483.7
- Average fluorescence intensity (at 665 nm) ([4]; 98 nM in PBS): 12523.0
- Average fluorescence intensity (at 665 nm) ([4]; 196 nM in PBS): 24679.7
- Average fluorescence intensity (at 665 nm) ([4]; 393 nM in PBS): 48611.7
- Average fluorescence intensity (at 665 nm) ([4]; 785 nM in PBS): 91308.7
- Average fluorescence intensity (at 665 nm) ([4]; 1570 nM in PBS): 160778.3
- Average fluorescence intensity (at 665 nm) ([4]; 3140 nM in PBS): 240494.7
- Average fluorescence intensity (at 665 nm) ([4]; 6280 nM in PBS): 308345.7

Compound: CC1(CCCCCC(=O)NCCCNc2nc(Cl)nc(NCCCCCC(=O)ON3C(=O)CCC3=O)n2)C(/C=C/C=C/C=C2/N(CCCS(=O)(=O)O)c3ccc(S(=O)(=O)O)cc3C2(C)C)=[N+](CCCS(=O)(=O)[O-])c2ccc(S(=O)(=O)O)cc21 (stereo not drawn) [Compound 20]
- Average fluorescence intensity (at 665 nm) ([4]; 3 nM in PBS): 313.3
- Average fluorescence intensity (at 665 nm) ([4]; 6 nM in PBS): 721.3
- Average fluorescence intensity (at 665 nm) ([4]; 12 nM in PBS): 1454.7
- Average fluorescence intensity (at 665 nm) ([4]; 25 nM in PBS): 2994.3
- Average fluorescence intensity (at 665 nm) ([4]; 49 nM in PBS): 6693.3
- Average fluorescence intensity (at 665 nm) ([4]; 98 nM in PBS): 13859.7
- Average fluorescence intensity (at 665 nm) ([4]; 196 nM in PBS): 29396.3
- Average fluorescence intensity (at 665 nm) ([4]; 393 nM in PBS): 59756.7
- Average fluorescence intensity (at 665 nm) ([4]; 785 nM in PBS): 118049.0
- Average fluorescence intensity (at 665 nm) ([4]; 1570 nM in PBS): 209850.3
- Average fluorescence intensity (at 665 nm) ([4]; 3140 nM in PBS): 321865.0
- Average fluorescence intensity (at 665 nm) ([4]; 6280 nM in PBS): 418428.3
- increment of fluorescence intensity compared to Compound 19 ([4]; FIG. 2): about 40%
- Relative quantum yield (%) ([2]; 650 compound): 11.70%
- fluorescence intensity versus reference fluorescent dye (Alexa Fluor 647 NHS ester) ([3]; 19.5 nM in 1xPBS pH 7.4, Excitation 560 nm, FIG. 4): relatively higher fluorescence intensity

The next lines start with the values.

- absorption wavelength intensity ([1]; same concentration, Example 1.7 versus Example 1.3, FIG. 1A): slightly higher
Compound: CC[N+]1=C(/C=C/C=C2/N(CCCCCC(=O)O)c3ccc(S(=O)(=O)O)cc3C2(C)C)C(C)(C)c2cc(S(=O)(=O)[O-])ccc21 [Example 1.3]

- Relative quantum yield (%) ([2]; 552 compound): 5.64%
Compound: Alexa Fluor 555 NHS ester [reference compound]

- Relative quantum yield (%) ([2]; 650 compound): 7.79%
Compound: Alexa Fluor 647 NHS ester [reference compound]
